For 14 compounds, IC50 results are on record in patent US8445676B2, “Pyrrolotriazine kinase inhibitors” (Bristol-Myers Squibb Company, priority 2008, dated 2013).

Like-named read-outs stand apart in the source and are kept apart here.

Common to all, as to format: biochemical
One experiment has as its target JAK2 (Homo sapiens, UniProt O60674). The experiment in a line: JAK2 Tyrosine Kinase Assay. The essentials:
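Reaction of JAK2 with fluorescent substrate run 60 min at room temperature and stopped with EDTA. Substrate and phosphorylated product separated electrophoretically on a Caliper LabChip. Compounds tested at eleven concentrations in duplicate, with IC50 from non-linear regression.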

For experiment [1], the target named is T1, JAK3 (Homo sapiens, UniProt P52333).
T1 sequence (P52333 1-1124): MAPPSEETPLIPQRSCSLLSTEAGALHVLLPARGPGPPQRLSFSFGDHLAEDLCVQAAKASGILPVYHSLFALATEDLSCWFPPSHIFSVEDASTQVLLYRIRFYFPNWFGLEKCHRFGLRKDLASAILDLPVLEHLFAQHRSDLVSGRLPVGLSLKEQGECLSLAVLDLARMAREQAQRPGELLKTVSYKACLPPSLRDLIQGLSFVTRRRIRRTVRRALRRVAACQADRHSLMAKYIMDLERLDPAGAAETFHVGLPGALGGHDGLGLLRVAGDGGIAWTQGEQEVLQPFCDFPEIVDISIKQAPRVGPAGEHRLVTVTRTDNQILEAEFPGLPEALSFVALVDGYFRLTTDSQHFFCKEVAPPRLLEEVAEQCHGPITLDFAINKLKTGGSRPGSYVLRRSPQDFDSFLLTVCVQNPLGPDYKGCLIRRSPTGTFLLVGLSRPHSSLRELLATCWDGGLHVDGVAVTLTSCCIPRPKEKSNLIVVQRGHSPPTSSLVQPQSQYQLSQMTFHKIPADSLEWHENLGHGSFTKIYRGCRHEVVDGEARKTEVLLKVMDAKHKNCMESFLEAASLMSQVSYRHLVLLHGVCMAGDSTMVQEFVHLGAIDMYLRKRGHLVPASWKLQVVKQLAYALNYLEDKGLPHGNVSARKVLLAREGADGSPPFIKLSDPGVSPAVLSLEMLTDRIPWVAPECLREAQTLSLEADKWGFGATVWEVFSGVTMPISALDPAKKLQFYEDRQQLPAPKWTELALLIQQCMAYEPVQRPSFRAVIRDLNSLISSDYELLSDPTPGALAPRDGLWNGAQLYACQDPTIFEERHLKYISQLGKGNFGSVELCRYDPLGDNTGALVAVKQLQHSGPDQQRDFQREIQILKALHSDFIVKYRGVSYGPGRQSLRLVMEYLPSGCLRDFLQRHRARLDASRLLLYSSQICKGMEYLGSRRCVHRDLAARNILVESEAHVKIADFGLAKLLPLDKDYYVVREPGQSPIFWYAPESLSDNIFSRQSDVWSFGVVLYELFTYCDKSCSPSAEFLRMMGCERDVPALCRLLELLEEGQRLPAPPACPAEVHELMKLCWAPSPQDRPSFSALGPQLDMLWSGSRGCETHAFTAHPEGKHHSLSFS
Kind of experiment: JAK3 Tyrosine Kinase Assay. Conditions: ATP 8 μM; JAK3 2.5 nM; 60 min room temperature. As for the experimental part:
JAK3 Tyrosine Kinase Assay
The assays were performed in V-bottom 384-well plates. […] The reaction was initiated by the combination of JAK3 with substrates and test compounds. The reaction was incubated at room temperature for 60 min. and terminated by adding 45 μl of 35 mM EDTA to each sample. The reaction mixture was analyzed on the Caliper LabChip 3000 by electrophoretic separation of the fluorescent substrate and phosphorylated product. […] The final concentration of reagents in the assays is ATP, 8 μM; JAK3 fluorescent peptide, 1.5 μM; JAK3, 2.5 nM; and DMSO, 1.6%. […] Compounds were dissolved at 10 mM in dimethylsulfoxide (DMSO) and evaluated at eleven concentrations, each in duplicate. IC50 values were derived by non-linear regression analysis.

The target in experiment [2] is T1, JAK3. The experiment in a line: JAK3 Tyrosine Kinase Assay. To be noted: prior-art compound, stated in the background; read-out: IC50 against JAK3.
[3] abbreviates: ATP 30 μM, JAK2 1 nM, 60 min room temperature, read-out: Jak2(IC50).

JAK2, sequence (O60674 whole entry): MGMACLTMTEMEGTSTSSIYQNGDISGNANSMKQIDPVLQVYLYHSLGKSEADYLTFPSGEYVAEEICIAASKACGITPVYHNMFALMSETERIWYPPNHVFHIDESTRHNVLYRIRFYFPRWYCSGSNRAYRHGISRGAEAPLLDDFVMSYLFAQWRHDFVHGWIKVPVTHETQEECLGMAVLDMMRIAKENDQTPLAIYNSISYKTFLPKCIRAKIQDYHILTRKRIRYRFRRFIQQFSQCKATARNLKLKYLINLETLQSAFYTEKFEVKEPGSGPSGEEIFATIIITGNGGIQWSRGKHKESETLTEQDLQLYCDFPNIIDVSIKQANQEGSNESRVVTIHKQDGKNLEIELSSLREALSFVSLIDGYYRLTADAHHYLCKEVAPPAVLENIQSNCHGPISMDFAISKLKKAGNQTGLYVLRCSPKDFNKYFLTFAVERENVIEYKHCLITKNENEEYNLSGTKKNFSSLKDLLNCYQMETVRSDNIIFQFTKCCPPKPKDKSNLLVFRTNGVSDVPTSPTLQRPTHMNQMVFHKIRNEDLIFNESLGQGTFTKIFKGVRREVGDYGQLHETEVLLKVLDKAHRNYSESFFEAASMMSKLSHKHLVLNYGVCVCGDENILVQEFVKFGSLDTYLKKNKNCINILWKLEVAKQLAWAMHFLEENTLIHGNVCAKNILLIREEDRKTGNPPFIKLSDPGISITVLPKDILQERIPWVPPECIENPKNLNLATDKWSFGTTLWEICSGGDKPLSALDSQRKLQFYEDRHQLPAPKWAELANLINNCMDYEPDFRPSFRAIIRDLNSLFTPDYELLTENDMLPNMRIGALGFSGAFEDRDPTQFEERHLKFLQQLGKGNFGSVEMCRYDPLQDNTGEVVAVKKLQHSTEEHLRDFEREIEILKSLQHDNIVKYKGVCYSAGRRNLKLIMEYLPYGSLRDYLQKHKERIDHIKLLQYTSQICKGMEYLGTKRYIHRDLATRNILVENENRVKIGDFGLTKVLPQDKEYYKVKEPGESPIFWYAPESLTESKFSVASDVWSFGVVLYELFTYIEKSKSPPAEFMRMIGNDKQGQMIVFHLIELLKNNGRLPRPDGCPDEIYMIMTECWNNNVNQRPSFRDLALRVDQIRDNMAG

`Cc1cc(Nc2nc(N3CCN(C(=O)Cc4ccccc4C(F)(F)F)CC3)nn3cccc23)n[nH]1` [Example 10, N-(5-methyl-1H-pyrazol-3-yl)-2-(4-((2-(trifluoromethyl)phenyl)acetyl)-1-piperazinyl)pyrrolo[2,1-f][1,2,4]triazin-4-amine]: the results for the IC50 on JAK2 (setting [3]) and on JAK3 [1] were 0.604 nM and 9.84 nM, respectively.

In the case of `COc1cccc(CC(=O)N2CCN(c3nc(Nc4cc(C)[nH]n4)c4cccn4n3)CC2)c1` [Example 49, 2-(4-((3-methoxyphenyl)acetyl)-1-piperazinyl)-N-(5-methyl-1H-pyrazol-3-yl)pyrrolo[2,1-f][1,2,4]triazin-4-amine], the IC50 on JAK2 (setting [3]) was 7.9 nM; at JAK3 [1] it was 170 nM.

With `CCC(O)(CC)C(=O)N1CCN(c2nc(Nc3cc(C)[nH]n3)c3cccn3n2)CC1` [Example 164, 3-((4-(4-((5-methyl-1H-pyrazol-3-yl)amino)pyrrolo[2,1-f] [1,2,4]triazin-2-yl)-1-piperazinyl)carbonyl)-3-pentanol], the values for the IC50 on JAK2 (setting [3]) and at JAK3 [1] were 240 nM and 1490 nM, respectively.

In the case of `Cc1cc(Nc2nc(N3CCNCC3)nn3cccc23)[nH]n1` [Example 74 of the publication, reference compound], the IC50 came to 31 nM at JAK2 (prior-art compound, stated in the background, read-out: IC50 against JAK2) and 460 nM at JAK3 [2].

`COc1ccc(CC(=O)N2CCN(c3nc(Nc4cc(C)[nH]n4)c4cccn4n3)CC2)cc1` [Example 45, 2-(4-((4-methoxyphenyl)acetyl)-1-piperazinyl)-N-(5-methyl-1H-pyrazol-3-yl)pyrrolo[2,1-f][1,2,4]triazin-4-amine]: the IC50 on JAK2 (setting [3]) came to 0.891 nM; at JAK3 [1], 10 nM.

With `Cc1cc(Nc2nc(N3CCN(C(=O)C4(c5ccc(F)cc5)CCCCC4)CC3)nn3cccc23)n[nH]1` [Example 126, 2-(4-((1-(4-fluorophenyl)cyclohexyl)carbonyl)-1-piperazinyl)-N-(5-methyl-1H-pyrazol-3-yl)pyrrolo[2,1-f] [1,2,4]triazin-4-amine], the IC50 at JAK2 (setting [3]) came to 150 nM; on JAK3 [1], 1410 nM.

Turning to `Cc1cc(Nc2nc(N3CCN(C(=O)c4ccns4)CC3)nn3cccc23)n[nH]1` [Example 106, 2-(4-(5-isothiazolylcarbonyl)-1-piperazinyl)-N-(5-methyl-1H-pyrazol-3-yl)pyrrolo[2,1-f] [1,2,4]triazin-4-amine], the concentration for half-maximal inhibition (IC50) amounted to 7.14 nM at JAK2 (setting [3]) and 40 nM on JAK3 [1].

For `Cc1cc(Nc2nc(N3CCN(C(=O)c4c(F)cccc4F)CC3)nn3cccc23)n[nH]1` [Example 20, 2-(4-(2,6-difluorobenzoyl)-1-piperazinyl)-N-(5-methyl-1H-pyrazol-3-yl)pyrrolo[2,1-f] [1,2,4]triazin-4-amine], the results for the IC50 at JAK2 (setting [3]) and at JAK3 [1] were 8.14 nM and 50 nM, respectively.

Turning to `CO[C@@H](C(=O)N1CCN(c2nc(Nc3cc(C)[nH]n3)c3cccn3n2)CC1)c1ccccc1` [Example 110, 2-(4-((2R)-2-methoxy-2-phenylacetyl)-1-piperazinyl)-N-(5-methyl-1H-pyrazol-3-yl)pyrrolo[2,1-f][1,2,4]triazin-4-amine], the IC50 worked out at 1 nM at JAK2 (setting [3]) and 20 nM at JAK3 [1].

For the compound `Cc1cc(Nc2nc(N3CCN(C(=O)[C@@H](NC(=O)OC(C)(C)C)c4ccc(F)cc4)CC3)nn3cccc23)n[nH]1` [Example 132, tert-butyl((1S)-1-(4-fluorophenyl)-2-(4-(4-((5-methyl-1H-pyrazol-3-yl)amino)pyrrolo[2,1-f][1,2,4]triazin-2-yl)-1-piperazinyl)-2-oxoethyl)carbamate], the half-maximal inhibitory concentration (IC50) at JAK2 (setting [3]) stood at 0.971 nM; at JAK3 [1], 30 nM.

On to `Cc1cc(Nc2nc(N3CCN(C(=O)C(C)(C)C)CC3)nn3cccc23)n[nH]1` [Example 168, 2-(4-(2,2-dimethylpropanoyl)-1-piperazinyl)-N-(5-methyl-1H-pyrazol-3-yl)pyrrolo[2,1-f][1,2,4]triazin-4-amine], for which the values for the IC50 at JAK2 (setting [3]) and at JAK3 [1] were 7.07 nM and 210 nM, respectively.

As for `Cc1cc(Nc2nc(N3CCN(C(=O)Cc4c(Cl)cccc4Cl)CC3)nn3cccc23)n[nH]1` [Example 38, 2-(4-((2,6-dichlorophenyl)acetyl)-1-piperazinyl)-N-(5-methyl-1H-pyrazol-3-yl)pyrrolo[2,1-f][1,2,4]triazin-4-amine], the IC50 at JAK2 (setting [3]) was found to be 1.12 nM; on JAK3 [1] it was 30 nM.

Consider `Cc1cc(Nc2nc(N3CCN(C(=O)c4ncccn4)CC3)nn3cccc23)n[nH]1` [Example 95, N-(5-methyl-1H-pyrazol-3-yl)-2-(4-(2-pyrimidinylcarbonyl)-1-piperazinyl)pyrrolo[2,1-f] [1,2,4]triazin-4-amine], for which the IC50 was found to be 6.65 nM on JAK2 (setting [3]) and 90 nM on JAK3 [1].

As to `Cc1ccc(C2(C(=O)N3CCN(c4nc(Nc5cc(C)[nH]n5)c5cccn5n4)CC3)CC2)cc1` [Example 187, 2-(4-((1-(4-methylphenyl)cyclopropyl)carbonyl)-1-piperazinyl)-N-(5-methyl-1H-pyrazol-3-yl)pyrrolo[2,1-f][1,2,4]triazin-4-amine], the IC50 at JAK2 (setting [3]) turned out to be 6.83 nM; at JAK3 [1], 200 nM.
